Experiments:
[1] = system: MDA-231 human breast cancer cell line; experiment: Transwell matrigel invasion assay, MDA-231; type: cell-based; conditions: MDA-231, 20 µM, 48 h
[2] = system: 4T1 mouse metastatic breast cancer line; experiment: Transwell matrigel invasion assay, 4T1; type: cell-based; conditions: 48 h
PMT cells = experiment: Transwell matrigel invasion assay, PMT; type: cell-based, mouse; conditions: 20 µM, 48 h
[3] = biological target: PLD2 (HEK293-gfpPLD2 cells) (Homo sapiens, UniProt O14939); experiment: Endogenous PLD activity assay; type: cell-based
Chain of PLD2 (HEK293-gfpPLD2 cells) (O14939 whole entry): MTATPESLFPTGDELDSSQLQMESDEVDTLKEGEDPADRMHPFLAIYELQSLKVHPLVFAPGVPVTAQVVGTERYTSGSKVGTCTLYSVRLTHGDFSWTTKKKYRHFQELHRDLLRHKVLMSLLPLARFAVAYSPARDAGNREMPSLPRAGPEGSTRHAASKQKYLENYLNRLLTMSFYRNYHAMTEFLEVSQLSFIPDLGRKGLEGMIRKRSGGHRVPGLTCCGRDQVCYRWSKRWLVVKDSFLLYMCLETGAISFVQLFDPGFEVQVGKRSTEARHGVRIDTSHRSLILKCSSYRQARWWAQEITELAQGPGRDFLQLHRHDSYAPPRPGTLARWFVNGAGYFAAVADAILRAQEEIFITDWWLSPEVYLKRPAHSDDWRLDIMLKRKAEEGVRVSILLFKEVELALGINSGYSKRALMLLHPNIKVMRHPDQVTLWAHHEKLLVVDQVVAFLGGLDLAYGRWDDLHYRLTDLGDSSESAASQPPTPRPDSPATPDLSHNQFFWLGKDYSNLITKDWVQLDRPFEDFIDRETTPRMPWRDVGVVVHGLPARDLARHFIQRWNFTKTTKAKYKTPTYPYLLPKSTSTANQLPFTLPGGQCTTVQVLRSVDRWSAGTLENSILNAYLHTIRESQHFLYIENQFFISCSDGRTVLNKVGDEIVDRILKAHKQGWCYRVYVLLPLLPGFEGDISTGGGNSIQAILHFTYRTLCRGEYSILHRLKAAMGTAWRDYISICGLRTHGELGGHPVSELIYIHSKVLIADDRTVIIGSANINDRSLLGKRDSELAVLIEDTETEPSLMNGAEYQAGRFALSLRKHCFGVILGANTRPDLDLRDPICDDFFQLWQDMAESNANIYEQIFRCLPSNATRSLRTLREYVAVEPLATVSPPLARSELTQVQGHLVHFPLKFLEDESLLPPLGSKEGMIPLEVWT

rat PLD1.d311 = biological target: T1, rat PLD1.d311 (Rattus norvegicus, UniProt P70496); conditions: no noticeable difference between the two
T1 sequence (P70496 312-1036 isoform P70496-2): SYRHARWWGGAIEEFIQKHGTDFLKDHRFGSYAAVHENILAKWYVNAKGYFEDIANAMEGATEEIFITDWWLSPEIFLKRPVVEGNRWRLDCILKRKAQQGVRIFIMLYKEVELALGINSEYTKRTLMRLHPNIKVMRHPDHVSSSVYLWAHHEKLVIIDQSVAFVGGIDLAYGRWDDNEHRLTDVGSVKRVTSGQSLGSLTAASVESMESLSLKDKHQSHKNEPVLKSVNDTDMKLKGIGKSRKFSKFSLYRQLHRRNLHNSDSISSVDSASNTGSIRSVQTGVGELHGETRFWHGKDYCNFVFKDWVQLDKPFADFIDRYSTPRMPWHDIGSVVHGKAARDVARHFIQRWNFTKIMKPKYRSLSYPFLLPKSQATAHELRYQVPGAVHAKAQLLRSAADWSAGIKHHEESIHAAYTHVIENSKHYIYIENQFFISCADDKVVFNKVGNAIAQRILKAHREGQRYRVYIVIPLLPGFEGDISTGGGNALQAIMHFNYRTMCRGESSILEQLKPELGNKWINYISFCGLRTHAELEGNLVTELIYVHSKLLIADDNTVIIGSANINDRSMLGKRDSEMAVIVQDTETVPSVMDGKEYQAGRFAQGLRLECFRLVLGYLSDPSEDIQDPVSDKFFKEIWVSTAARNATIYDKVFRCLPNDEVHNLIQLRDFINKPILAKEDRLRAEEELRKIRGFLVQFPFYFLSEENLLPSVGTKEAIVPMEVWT

PLD = conditions: read-out: IC50 (PLD, indirect inhibitor); cited from earlier work
[4] = system: non-HKD-containing bacterial (Streptomyces chromofuscus) PLD; conditions: read-out: IC50 S. chromofuscus PLD; in vitro; cited from earlier work
human PLD1b = conditions: read-out: IC50 human PLD1b; in vitro; cited from earlier work

## O=C(NCCN1CCC(n2c(=O)[nH]c3ccccc32)CC1)c1ccc2ccccc2c1 [Compound 56]
[1]
  Invasive migration in transwell invasion assay: significantly (P < 0.05) decrease
[2]; 4T1, 20 µM
  Invasive migration in transwell invasion assay: significantly (P < 0.05) decrease
PMT cells
  Invasive migration in transwell invasion assay: significantly (P < 0.05) decrease

## O=C(NCCN1CCC2(CC1)C(=O)NCN2c1ccccc1)c1ccc(C(F)(F)F)cc1 [Compound 70]
[3]
  IC50: > 20 µM

## O=C(NCCN1CCC(n2c(=O)[nH]c3ccccc32)CC1)c1cc(Br)c(Br)o1 [Compound 64]
Rat PLD1.d311
  Inhibition of basal and myr-Arf-1-stimulated activity of purified PLD1.d311: directly inhibited

## O=C(c1ccc(Cl)cc1)N(CCN1CCC2(CC1)C(=O)NCN2c1ccccc1)C(=O)c1ccc(Cl)cc1 [Compound 82]
[1]
  Invasive migration in transwell invasion assay: significantly decreased cell migration
[2]; 4T1, 20 µM
  Invasive migration in transwell invasion assay: significantly decreased cell migration
PMT cells
  Invasive migration in transwell invasion assay: significantly decreased cell migration

## Oc1ccc(/C=C/c2cc(O)cc(O)c2)cc1 [resveratrol]
PLD
  IC50: > 60 µM

## CC(C)=CCC/C(C)=C/CC/C(C)=C/C1C(COP(=O)(O)OP(=O)(O)O)C1(C)CC/C=C(\C)CCC=C(C)C (stereo in doubt) [presqualene diphosphate]
[4]
  IC50: 0.1 µM
Human PLD1b
  IC50: > 1 µM

## O=C(NCCN1CCC2(CC1)C(=O)NCN2c1ccccc1)c1ccc2ccccc2c1 [Compound 72]
[1]
  Invasive migration in transwell invasion assay: significantly decreased cell migration
[2]; 4T1, 20 µM
  Invasive migration in transwell invasion assay: significantly decreased cell migration
PMT cells
  Invasive migration in transwell invasion assay: significantly decreased cell migration

## O=C(NCCN1CCC(n2c(=O)[nH]c3ccccc32)CC1)[C@@H]1C[C@H]1c1ccccc1 [Compound 58]
[1]
  Invasive migration in transwell invasion assay: significantly decreased cell migration
[2]; 4T1, 200 nM
  Invasive migration in transwell invasion assay: significantly decreased cell migration
[2]; 4T1, 20 µM
  Invasive migration in transwell invasion assay: significantly decreased cell migration
PMT cells
  Invasive migration in transwell invasion assay: significantly decreased cell migration

## C[C@@H](CN1CCC(n2c(=O)[nH]c3cc(Cl)ccc32)CC1)NC(=O)c1ccc2ccccc2c1 [Compound 69]
[1]
  Invasive migration in transwell invasion assay: significantly decreased cell migration
[2]; 4T1, 200 nM
  Invasive migration in transwell invasion assay: significantly decreased cell migration
[2]; 4T1, 20 µM
  Invasive migration in transwell invasion assay: significantly decreased cell migration
PMT cells
  Invasive migration in transwell invasion assay: significantly decreased cell migration

Source: paper PMC3798018 (Nature chemical biology, 2009)
